{"source": "patent US20050106249A1", "about": "(priority 2002, published 2005)", "key": {"healthy male subjects [1]": {"test_system": "healthy male subjects", "experiment": "Example 5 pupil size", "assay_type": "in vivo, human", "details": "IV morphine 10 mg; Example 2 SZO-24 dosage form 2×20 mg"}, "healthy male subjects [2]": {"test_system": "healthy male subjects", "experiment": "Example 5 cold pain test", "details": "10 mg IV infusion over 15 min"}, "[3]": {"details": "analyte in plasma after 40 mg (oxycodone HCl) SZO-24 dosage form"}, "[4]": {"details": "human plasma; orally administered immediate release oxycodone; cited from earlier work"}, "[5]": {"test_system": "Male Sprague-Dawley (SD) rats", "experiment": "Example 8 rat tolerance study, tail-flick assay", "details": "for Tail flick results: mean ± SD", "experimental": "The biphasic dosing regimen used subcutaneous (SC) infusion, and the SZO regimen used subcutaneously-implanted ALZET® osmotic pumps. The vehicle control for the study was 0.9% saline.\nThe rodent tail-flick assay was used to assess analgesia (antinociception). […] In the assay, rodents are briefly restrained and radiant heat is applied to the tip of the tail. The time it takes for the animal to flick its tail is recorded; a delay in this response compared to pre-dose readings is indicative of antinociception.\nAn IITC Model 33 Tail Flick Analgesia Meter was used to apply heat to the animal's tail (IITC Life Science, Woodland Hills, Calif.). […] (this temperature allows pre-warming of the animal's tail to allow for more uniform measurements from day-to-day and test-to-test); • (3) Cutoff Time: 10 seconds (i.e., the length of time from the start of the test until the unit automatically ends the test to prevent tissue damage).\nThe animals were briefly restrained in plexiglass restrainers and radiant heat was applied to the tip of the animal's tail (approximately 1-2 cm from the tip). After the temperature reached 30° C., the meter increased the light intensity providing a noxious stimulus to the animal's tail. The time in seconds for the animal to flick its tail was recorded for each animal.\nTail flick latency values were converted to a percentage of the maximum possible effect (%MPE) using the following formula: %MPE=100×(ΔL/ΔLmax) where: ΔL=Post-dose Latency−Pre-dose Latency, and ΔLmax=Cutoff Time−Pre-dose Latency.\nFor the biphasic dosing regimen, the animals were subcutaneously infused using a computer-controlled Harvard syringe pump. […] The animals had catheters implanted subcutaneously with approximately 7 cm of PE 10 tubing. The tubing was secured with sutures and sterile surgical skin glue to prevent accidental removal of the catheter.\nFor the SZO dosing regimen, ALZET® osmotic pumps (Model 2ML1) were implanted subcutaneously in the animals. […] For the SZO dosing, the rats were not tethered.\nMale Sprague-Dawley (SD) rats obtained from Charles River (Hollister, Calif.) and weighing at least 200g were used in the experiments. Extra animals were employed in the biphasic dosing regimen to take account of damaged catheters, but only enough animals were dosed on Day +3 to replace the animals with damaged catheters.\nIntuitively, the difference between the effect of the same test on Day +3 and Day −1 should be a direct measure of tolerance. The data collected from rats tested for responses at 0, 0.25, 0.5, 0.75, and 1 mg/kg were thus used to perform the statistical analysis.\nThe data (difference between Day +3 and Day −1) were analyzed by the analysis of variance (ANOVA) method. The full variance model consisted of the three primary factors, their first-order interaction terms and their second order interaction term, namely: • dosing regimen, • 3-day treatment, • tail flick testing dose, • dosing regimen×3-day treatment, • dosing regimen×tail flick testing dose, • 3-day treatment×tail flick testing dose, and • dosing regiment×3-day treatment x tail flick testing dose."}, "[6]": {"details": "cited from earlier work"}}, "data": [{"smiles": "CN1CC[C@]23c4c5ccc(O)c4O[C@H]2[C@@H](O)C=C[C@H]3[C@H]1C5", "note": "[IV morphine, morphine]", "values": [{"measurement": "pupil size changes", "setting": "healthy male subjects [1]", "result": "consistent with their respective pharmacokinetic profiles"}, {"measurement": "separation from placebo in the cold pain test", "setting": "healthy male subjects [2]", "result": "did not statistically separate from placebo"}]}, {"smiles": "COc1ccc2c3c1O[C@H]1C(=O)CC[C@@]4(O)[C@@H](C2)NCC[C@]314", "note": "[Noroxycodone]", "values": [{"measurement": "AUCinf, single dose", "setting": "[3]", "result": 421.2, "unit": "ng·h/mL"}, {"measurement": "Cmax, single-dose plasma concentration", "setting": "[3]", "result": 13.12, "unit": "ng/mL"}]}, {"smiles": "COc1ccc2c3c1OC1C(=O)CC[C@@]4(O)[C@@H](C2)N(C)CC[C@]314", "note": "(stereo partly shown) [oxycodone, 4,5-epoxy-14-hydroxy-3-methoxy-17-methylmorphinan-6-one]", "values": [{"measurement": "half-life", "setting": "[4]", "result": "about 3.2 hours"}, {"measurement": "Tail flick results", "setting": "[5]; Biphasic dosing (SC infusion, syringe pump, 10 mg/(kg · d)), 3-day treatment oxycodone, testing dose 0 mg/kg, Day +3, n = 7", "result": "1.55 ± 4.70", "unit": "% MPE"}, {"measurement": "Tail flick results", "setting": "[5]; Biphasic dosing (SC infusion, syringe pump, 10 mg/(kg · d)), 3-day treatment oxycodone, testing dose 0.25 mg/kg SC, Day +3, n = 8", "result": "0.48 ± 2.28", "unit": "% MPE"}, {"measurement": "Tail flick results", "setting": "[5]; Biphasic dosing (SC infusion, syringe pump, 10 mg/(kg · d)), 3-day treatment oxycodone, testing dose 0.25 mg/kg SC, Day −1, n = 8", "result": "4.75 ± 6.80", "unit": "% MPE"}, {"measurement": "Tail flick results", "setting": "[5]; Biphasic dosing (SC infusion, syringe pump, 10 mg/(kg · d)), 3-day treatment oxycodone, testing dose 0.5 mg/kg SC, Day +3, n = 8", "result": "10.64 ± 7.72", "unit": "% MPE"}, {"measurement": "Tail flick results", "setting": "[5]; Biphasic dosing (SC infusion, syringe pump, 10 mg/(kg · d)), 3-day treatment oxycodone, testing dose 0.5 mg/kg SC, Day −1, n = 8", "result": "34.19 ± 28.28", "unit": "% MPE"}, {"measurement": "Tail flick results", "setting": "[5]; Biphasic dosing (SC infusion, syringe pump, 10 mg/(kg · d)), 3-day treatment oxycodone, testing dose 0.75 mg/kg SC, Day −1, n = 8", "result": "49.32 ± 32.89", "unit": "% MPE"}, {"measurement": "Tail flick results", "setting": "[5]; Biphasic dosing (SC infusion, syringe pump, 10 mg/(kg · d)), 3-day treatment oxycodone, testing dose 1 mg/kg SC, Day +3, n = 8", "result": "30.73 ± 19.05", "unit": "% MPE"}, {"measurement": "Tail flick results", "setting": "[5]; Biphasic dosing (SC infusion, syringe pump, 10 mg/(kg · d)), 3-day treatment oxycodone, testing dose 1 mg/kg SC, Day −1, n = 8", "result": "84.61 ± 27.43", "unit": "% MPE"}, {"measurement": "Tail flick results", "setting": "[5]; Biphasic dosing (SC infusion, syringe pump, 10 mg/(kg · d)), 3-day treatment oxycodone, testing dose 1.5 mg/kg SC, Day −1, n = 8", "result": "100.00 ± 0.00", "unit": "% MPE"}, {"measurement": "Tail flick results", "setting": "[5]; Biphasic dosing (SC infusion, syringe pump, 10 mg/(kg · d)), 3-day treatment oxycodone, testing dose 3.0 mg/kg SC, Day +3, n = 8", "result": "84.81 ± 26.06", "unit": "% MPE"}, {"measurement": "Tail flick results", "setting": "[5]; Biphasic dosing group, 3-day treatment saline, testing dose 0.25 mg/kg SC, Day +3, n = 8", "result": "9.25 ± 12.00", "unit": "% MPE"}, {"measurement": "Tail flick results", "setting": "[5]; Biphasic dosing group, 3-day treatment saline, testing dose 0.25 mg/kg SC, Day −1, n = 8", "result": "13.82 ± 7.87", "unit": "% MPE"}, {"measurement": "Tail flick results", "setting": "[5]; Biphasic dosing group, 3-day treatment saline, testing dose 0.5 mg/kg SC, Day +3, n = 8", "result": "15.22 ± 12.44", "unit": "% MPE"}, {"measurement": "Tail flick results", "setting": "[5]; Biphasic dosing group, 3-day treatment saline, testing dose 0.5 mg/kg SC, Day −1, n = 8", "result": "26.59 ± 22.79", "unit": "% MPE"}, {"measurement": "Tail flick results", "setting": "[5]; Biphasic dosing group, 3-day treatment saline, testing dose 0.75 mg/kg SC, Day +3, n = 8", "result": "48.59 ± 39.89", "unit": "% MPE"}, {"measurement": "Tail flick results", "setting": "[5]; Biphasic dosing group, 3-day treatment saline, testing dose 0.75 mg/kg SC, Day −1, n = 8", "result": "73.56 ± 28.57", "unit": "% MPE"}, {"measurement": "Tail flick results", "setting": "[5]; Biphasic dosing group, 3-day treatment saline, testing dose 1 mg/kg SC, Day +3, n = 7", "result": "46.00 ± 18.96", "unit": "% MPE"}, {"measurement": "Tail flick results", "setting": "[5]; Biphasic dosing group, 3-day treatment saline, testing dose 1 mg/kg SC, Day −1, n = 7", "result": "89.52 ± 20.25", "unit": "% MPE"}, {"measurement": "Tail flick results", "setting": "[5]; Biphasic dosing group, 3-day treatment saline, testing dose 1.5 mg/kg SC, Day −1, n = 8", "result": "92.48 ± 16.05", "unit": "% MPE"}, {"measurement": "Tail flick results", "setting": "[5]; Biphasic dosing group, 3-day treatment saline, testing dose 3.0 mg/kg SC, Day +3, n = 8", "result": "92.97 ± 15.65", "unit": "% MPE"}, {"measurement": "Tail flick results", "setting": "[5]; SZO dosing (SC ALZET, 10 mg/(kg · d)), 3-day treatment oxycodone, testing dose 0 mg/kg, Day +3, n = 8", "result": "−4.75 ± 8.51", "unit": "% MPE"}, {"measurement": "Tail flick results", "setting": "[5]; SZO dosing (SC ALZET, 10 mg/(kg · d)), 3-day treatment oxycodone, testing dose 0.25 mg/kg SC, Day +3, n = 8", "result": "−2.07 ± 4.18", "unit": "% MPE"}, {"measurement": "Tail flick results", "setting": "[5]; SZO dosing (SC ALZET, 10 mg/(kg · d)), 3-day treatment oxycodone, testing dose 0.25 mg/kg SC, Day −1, n = 8", "result": "14.72 ± 16.16", "unit": "% MPE"}, {"measurement": "Tail flick results", "setting": "[5]; SZO dosing (SC ALZET, 10 mg/(kg · d)), 3-day treatment oxycodone, testing dose 0.5 mg/kg SC, Day +3, n = 8", "result": "8.48 ± 17.38", "unit": "% MPE"}, {"measurement": "Tail flick results", "setting": "[5]; SZO dosing (SC ALZET, 10 mg/(kg · d)), 3-day treatment oxycodone, testing dose 0.5 mg/kg SC, Day −1, n = 8", "result": "33.12 ± 19.58", "unit": "% MPE"}, {"measurement": "Tail flick results", "setting": "[5]; SZO dosing (SC ALZET, 10 mg/(kg · d)), 3-day treatment oxycodone, testing dose 0.75 mg/kg SC, Day +3, n = 8", "result": "7.90 ± 11.36", "unit": "% MPE"}, {"measurement": "Tail flick results", "setting": "[5]; SZO dosing (SC ALZET, 10 mg/(kg · d)), 3-day treatment oxycodone, testing dose 0.75 mg/kg SC, Day −1, n = 8", "result": "60.76 ± 31.45", "unit": "% MPE"}, {"measurement": "Tail flick results", "setting": "[5]; SZO dosing (SC ALZET, 10 mg/(kg · d)), 3-day treatment oxycodone, testing dose 1 mg/kg SC, Day +3, n = 8", "result": "23.75 ± 25.96", "unit": "% MPE"}, {"measurement": "Tail flick results", "setting": "[5]; SZO dosing (SC ALZET, 10 mg/(kg · d)), 3-day treatment oxycodone, testing dose 1 mg/kg SC, Day −1, n = 8", "result": "80.15 ± 36.76", "unit": "% MPE"}, {"measurement": "Tail flick results", "setting": "[5]; SZO dosing (SC ALZET, 10 mg/(kg · d)), 3-day treatment oxycodone, testing dose 1.5 mg/kg SC, Day −1, n = 8", "result": "91.44 ± 24.22", "unit": "% MPE"}, {"measurement": "Tail flick results", "setting": "[5]; SZO dosing (SC ALZET, 10 mg/(kg · d)), 3-day treatment oxycodone, testing dose 3.0 mg/kg SC, Day +3, n = 8", "result": "94.35 ± 11.48", "unit": "% MPE"}, {"measurement": "Tail flick results", "setting": "[5]; SZO dosing group, 3-day treatment saline, testing dose 0.25 mg/kg SC, Day +3, n = 8", "result": "7.44 ± 11.94", "unit": "% MPE"}, {"measurement": "Tail flick results", "setting": "[5]; SZO dosing group, 3-day treatment saline, testing dose 0.25 mg/kg SC, Day −1, n = 8", "result": "13.69 ± 8.94", "unit": "% MPE"}, {"measurement": "Tail flick results", "setting": "[5]; SZO dosing group, 3-day treatment saline, testing dose 0.5 mg/kg SC, Day +3, n = 8", "result": "8.92 ± 11.30", "unit": "% MPE"}, {"measurement": "Tail flick results", "setting": "[5]; SZO dosing group, 3-day treatment saline, testing dose 0.5 mg/kg SC, Day −1, n = 8", "result": "21.86 ± 13.71", "unit": "% MPE"}, {"measurement": "Tail flick results", "setting": "[5]; SZO dosing group, 3-day treatment saline, testing dose 0.75 mg/kg SC, Day +3, n = 8", "result": "51.09 ± 46.28", "unit": "% MPE"}, {"measurement": "Tail flick results", "setting": "[5]; SZO dosing group, 3-day treatment saline, testing dose 0.75 mg/kg SC, Day −1, n = 8", "result": "65.33 ± 32.06", "unit": "% MPE"}, {"measurement": "Tail flick results", "setting": "[5]; SZO dosing group, 3-day treatment saline, testing dose 1 mg/kg SC, Day +3, n = 8", "result": "35.55 ± 27.94", "unit": "% MPE"}, {"measurement": "Tail flick results", "setting": "[5]; SZO dosing group, 3-day treatment saline, testing dose 1 mg/kg SC, Day −1, n = 8", "result": "90.33 ± 19.58", "unit": "% MPE"}, {"measurement": "Tail flick results", "setting": "[5]; SZO dosing group, 3-day treatment saline, testing dose 1.5 mg/kg SC, Day −1, n = 8", "result": "100.00 ± 0.00", "unit": "% MPE"}, {"measurement": "Tail flick results", "setting": "[5]; SZO dosing group, 3-day treatment saline, testing dose 3.0 mg/kg SC, Day +3, n = 8", "result": "100.00 ± 0.00", "unit": "% MPE"}, {"measurement": "tolerance, SZO dosing regimen versus biphasic dosing regimen", "setting": "[5]; full ANOVA model, 158 rats", "result": "not statistically significantly different"}, {"measurement": "tolerance, rats treated with oxycodone for 3 days versus saline", "setting": "[5]; full ANOVA model, p=0.0039", "result": "statistically different"}, {"measurement": "estimated mean tolerance difference between the SZO dosing regimen and the biphasic dosing regimen", "setting": "[5]; reduced ANOVA model, not statistically different at α 0.05", "result": "−3.2", "unit": "%MPE"}, {"measurement": "estimated mean tolerance difference (Day +3 minus Day −1) between the oxycodone and saline treated rats", "setting": "[5]; reduced ANOVA model, p=0.0035, testing doses 0-1 mg/kg", "result": "−10.7", "unit": "%MPE"}, {"measurement": "onset of action, analgesia occurring", "setting": "[6]; orally administered", "result": "≤ 30", "unit": "min"}, {"measurement": "analgesic action apparent (onset)", "setting": "[6]; parenterally administered", "result": "≤ 15", "unit": "min"}]}]}
